In patent publication US11319344B2, “Non-membrane disruptive P53 activating stapled peptides” (AGENCY FOR SCIENCE, TECHNOLOGY AND RESEARCH, priority 2015, dated 2022):
Read-outs that look alike come from different tables or passages of the source. *1 amine or outer side, *2 acyl side, *3 side chain or, on linkers, in order; H or OH if unused. Where a SMILES comes first, the peptide text is derived from it. Bridges are numbered along the chain shown (N, C = ends). [ ]: non-standard residue; d: D form. ξ: configuration not given here. ξαMeNle(6-ylidene) = CC(CCCC=[*:3])(N[*:1])C(=O)[*:2]; X1 = CC(CCCCCCC=[*:3])(N[*:1])C(=O)[*:2]; R8 = C=CCCCCCC[C@@](C)(N)C(=O)O; R5 = C=CCCC[C@@](C)(N)C(=O)O; S5 = C=CCCC[C@](C)(N)C(=O)O; Ahx = NCCCCCC(=O)O

Assays:
[1] = biological target: N-terminal domain of Mdm2 (1-125) (Homo sapiens, UniProt Q00987); assay: Competitive fluorescence anisotropy titration (apparent Kd)
Description: In this assay, a N-terminally FAM labelled peptide of the sequence [sequence]
The cells expressing the Mdm2 GST fusion construct were grown in LB medium at 37° C. to an OD600 of ˜0.6 and induction was carried out with 1 mM isopropyl β-D-1-thiogalactopyranoside (IPTG) at room temperature. Cells were harvested by centrifugation and the cell pellets were resuspended in 50 mM Tris pH 8.0, 10% sucrose and then sonicated. The sonicated sample was centrifuged for 60 minutes at 17,000 g at 4° C. […] The column was then further washed by 6 volumes of wash buffer. Mdm2 were then purified from the column by cleavage with PreScission protease. 10 units of PreScission protease, in one column volume of PBS with 1 mM DTT buffer, were injected onto the column. The cleavage reaction was allowed to proceed overnight at 4° C. The cleaved protein was then eluted of the column with wash buffer. Protein fractions were analysed with SDS-PAGE and concentrated using a Centricon (3.5 kDa molecular weight cut-off (MWCO)) concentrator. The Mdm2 protein sample was then dialyzed into a buffer solution containing 20 mM Bis-Tris, pH 6.5, 0.05M NaCl with 1 mM DTT and loaded onto a monoS column pre-equilibrated in buffer A (20 mM Bis-Tris, pH 6.5, 1 mM DTT). The column was then washed in 6 column volumes of buffer A and bound protein was eluted with a linear gradient of 1M NaCl over 25 column volumes. Protein fractions were analysed with sodium dodecyl sulfate-polyacrylamide gel electrophoresis (SDS-PAGE) and concentrated using a Centricon (3.5 kDa molecular weight cut-off (MWCO)) concentrator.
Apparent dissociation constant (Kd) values were determined for a variety of molecules via competitive fluorescence anisotropy experiments. […] The competing molecules were then titrated against the complex of the FAM labelled peptide and protein. Apparent dissociation constant (Kd) values were determined by fitting the experimental data to the equations shown below:
[L]st and [L]t denote labelled ligand and total unlabelled ligand input concentrations, respectively. Kd2 is the dissociation constant of the interaction between the unlabelled ligand and the protein. In all competitive types of experiments, it is assumed that [P]t>[L]st, otherwise considerable amounts of free labelled ligand would always be present and would interfere with measurements. […] The FAM-labelled peptide was dissolved in dimethyl sulfoxide (DMSO) at 1 mM and diluted into experimental buffer. Readings were carried out with a Envision Multilabel Reader. […] All titrations were carried out in triplicate. Curve-fitting was carried out using Prism 4.0 (GraphPad). […]

[2] = test system: p53 transcriptional activity in T22 cells; assay: T22 p53 β-galactosidase based reporter assay; format: cell-based, murine; conditions: for IC50: T22 p53 reporter assay, 18 h; for ability to induce p53 activity in T22 reporter assay: with and without serum
Description: The YS-01/04 peptides were screened in a murine T22-derived p53 reporter assay, either with or without fetal calf serum, to assess their ability to induce p53 transcriptional activity in intact cells (Table 1 and FIG. 3).
(§1) T22 cells, which were stably transfected with a p53 responsive β-galactosidase reporter, were seeded into 96-well plate at a cell density of 8000 cells per well. Cells were also maintained in Dulbecco's Minimal Eagle Medium (DMEM) with 10% fetal bovine serum (FBS) and penicillin/streptomycin. […] Measurements were carried out using a Safire II multiplate reader. Experiments were carried out independently twice.

[3] = Circular dichroism spectroscopy (helicity in solution); format: physicochemical; conditions: peptide unbound in solution
[4] = test system: p53 transcriptional activity in ARN8 cells; assay: ARN8 β-galactosidase based p53 reporter assay; format: cell-based, Human; conditions: 18 h; for p53 activation (β-galactosidase activity) in ARN8 cells: serum free
Description: ARN8 cells contain the same β-galactosidase gene under the control of a p53 promoter that is stably transfected into T22 cells. […] The YS-07 and YS-09 titrations were again repeated and the lactate dehydrogenase leakage from ARN8 cells measured instead (FIGS. 8c and 8d).
as §1, with “ARN8” for “T22”

[5] = absence of serum, read-out: T22 IC50 (0% μM)
[6] = presence of 10% fetal calf serum, read-out: T22 Ic50 (10% μM)

Sequence of N-terminal domain of Mdm2 (1-125) (Q00987 1-125): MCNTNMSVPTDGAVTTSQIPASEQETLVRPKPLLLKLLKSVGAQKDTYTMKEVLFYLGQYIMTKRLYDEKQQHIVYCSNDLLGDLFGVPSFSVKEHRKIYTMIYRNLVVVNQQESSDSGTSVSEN

Structure (SMILES)	Kd stronger in comparison to sMTIDE-02 ([1]; ratio to sMTIDE-02 Kd)	IC50 [2, 5] [µM]	IC50 [2, 6] [µM]	ability to induce p53 activity in T22 reporter assay [2]	helicity in solution (CD spectra) [3]	Kd weaker than the i,i+4 analogue peptides (YS-01 and YS-02) ([1]; ratio to YS-01/YS-02 Kd)	p53 activation (β-galactosidase activity) in ARN8 cells [4]	p53 activation in ARN8 cells ([4]; 10% serum)
CC(=O)N[C@H](C(=O)N[C@@H](CO)C(=O)N[C@@H](Cc1ccccc1)C(=O)N[C@]1(C)CCCC=CCCC[C@](C)(C(=O)N[C@@H](CC(C)C)C(=O)N[C@@H](CC(C)C)C(=O)N2CCC[C@H]2C(=O)N[C@@H](CCC(=O)O)C(=O)N[C@@H](CC(N)=O)C(=O)N[C@@H](Cc2ccccc2)C(N)=O)NC(=O)[C@H](Cc2c[nH]c3ccccc23)NC(=O)[C@H](Cc2ccc(O)cc2)NC(=O)[C@H](CCC(=O)O)NC1=O)[C@@H](C)O [YS-01, Ac-^17TSFX5EYWX5LLPENF^30-NH2] (Ac-TSF[R5]EYW[R5]LLPENF-NH2; staple 4-8)	approximately 3 fold	–	–	–	–	–	–	–
CC(=O)N[C@H](C(=O)N[C@@H](CO)C(=O)N[C@@H](Cc1ccccc1)C(=O)NC1(C)CCCCCCC=CCCCC(C)(C(=O)N[C@@H](CCC(=O)O)C(=O)N[C@@H](CC(N)=O)C(=O)N[C@@H](Cc2ccc(O)cc2)C(N)=O)NC(=O)[C@H](CC(C)C)NC(=O)[C@H](CC(C)C)NC(=O)[C@H](C)NC(=O)[C@H](Cc2c[nH]c3ccccc23)NC(=O)[C@H](Cc2ccc(O)cc2)NC(=O)[C@H](CCC(=O)O)NC1=O)[C@@H](C)O (stereo partly drawn) [YS-04, Ac-^17TSFX8EYWALLS5ENY^30-NH2]	–	9.73	78.3	greater potency in the T22 assay than YS-01 and YS-02	significantly more helical in character in solution than YS-01 and YS-02	approximately 2 fold	–	–
CC(=O)N[C@H](C(=O)N[C@@H](CO)C(=O)N[C@@H](Cc1ccccc1)C(=O)N[C@]1(C)CCCC=CCCC[C@](C)(C(=O)N[C@@H](CC(C)C)C(=O)N[C@@H](CC(C)C)C(=O)N[C@@H](CO)C(=O)N[C@@H](CCC(=O)O)C(=O)N[C@@H](CC(N)=O)C(=O)N[C@@H](Cc2ccc(O)cc2)C(N)=O)NC(=O)[C@H](Cc2c[nH]c3ccccc23)NC(=O)[C@H](Cc2ccc(O)cc2)NC(=O)[C@H](CCC(=O)O)NC1=O)[C@@H](C)O [YS-06, Ac-^17TSFX5EYWX5LLSENY^30-NH2] (Ac-TSF[R5]EYW[R5]LLSENY-NH2; staple 4-8)	–	–	–	improvement of both peptides to activate p53	significantly more helical structure	–	–	–
CC(=O)N[C@@H](CCCCN)C(=O)N[C@@H](CCCCN)C(=O)NCCCCCC(=O)N[C@H](C(=O)N[C@@H](CO)C(=O)N[C@@H](Cc1ccccc1)C(=O)N[C@]1(C)CCCCCCC=CCCC[C@@](C)(C(=O)N[C@@H](CCC(=O)O)C(=O)N[C@@H](CC(N)=O)C(=O)N[C@@H](Cc2ccccc2)C(N)=O)NC(=O)[C@H](CC(C)C)NC(=O)[C@H](CC(C)C)NC(=O)[C@H](C)NC(=O)[C@H](Cc2c[nH]c3ccccc23)NC(=O)[C@H](Cc2ccc(O)cc2)NC(=O)[C@H](CCC(=O)O)NC1=O)[C@@H](C)O [YS-07, Ac-KK-Ahx-^17TSFX8EYWALLS5ENF^30-NH2] (Ac-KK[Ahx]TSF[R8]EYWALL[S5]ENF-NH2; staple 7-14)	–	~0.78	9.95	most potent	–	–	efficiently induced β-galactosidase activity	–
CC(=O)N[C@@H](CCCCN)C(=O)N[C@@H](CCCCN)C(=O)NCCCCCC(=O)N[C@H](C(=O)N[C@@H](CO)C(=O)N[C@@H](Cc1ccccc1)C(=O)N[C@]1(C)CCCCCCC=CCCC[C@@](C)(C(=O)N[C@@H](CCC(=O)O)C(=O)N[C@@H](CC(N)=O)C(=O)N[C@@H](Cc2ccc(O)cc2)C(N)=O)NC(=O)[C@H](CC(C)C)NC(=O)[C@H](CC(C)C)NC(=O)[C@H](C)NC(=O)[C@H](Cc2c[nH]c3ccccc23)NC(=O)[C@H](Cc2ccc(O)cc2)NC(=O)[C@H](CCC(=O)O)NC1=O)[C@@H](C)O [YS-08, Ac-KK-Ahx-^17TSFX8EYWALLS5ENY^30-NH2] (Ac-KK[Ahx]TSF[R8]EYWALL[S5]ENY-NH2; staple 7-14)	–	7.29	23.4	least potent amongst the four peptides	–	–	–	–
CC(=O)N[C@@H](CCCNC(=N)N)C(=O)N[C@@H](CCCNC(=N)N)C(=O)N[C@@H](CCCNC(=N)N)C(=O)NCCCCCC(=O)N[C@H](C(=O)N[C@@H](CO)C(=O)N[C@@H](Cc1ccccc1)C(=O)NC1(C)CCCCCCC=CCCCC(C)(C(=O)N[C@@H](CCC(=O)O)C(=O)N[C@@H](CC(N)=O)C(=O)N[C@@H](Cc2ccccc2)C(N)=O)NC(=O)[C@H](CC(C)C)NC(=O)[C@H](CC(C)C)NC(=O)[C@H](C)NC(=O)[C@H](Cc2c[nH]c3ccccc23)NC(=O)[C@H](Cc2ccc(O)cc2)NC(=O)[C@H](CCC(=O)O)NC1=O)[C@@H](C)O (stereo partly drawn) [YS-09, Ac-RRR-Ahx-^17TSFX8EYWALLS5ENF^30-NH2] (Ac-RRR[Ahx]TSF[X1]EYWALL[ξαMeNle(6-ylidene)]ENF-NH2; staple 8-15)	–	1.98	11.6	–	–	–	sharp burst of p53 transcriptional activity at 3.125 μM followed by a sharp decline at higher concentrations	slightly more activity than YS-07
CC(=O)N[C@@H](CCCNC(=N)N)C(=O)N[C@@H](CCCNC(=N)N)C(=O)N[C@@H](CCCNC(=N)N)C(=O)NCCCCCC(=O)N[C@H](C(=O)N[C@@H](CO)C(=O)N[C@@H](Cc1ccccc1)C(=O)NC1(C)CCCCCCC=CCCCC(C)(C(=O)N[C@@H](CCC(=O)O)C(=O)N[C@@H](CC(N)=O)C(=O)N[C@@H](Cc2ccc(O)cc2)C(N)=O)NC(=O)[C@H](CC(C)C)NC(=O)[C@H](CC(C)C)NC(=O)[C@H](C)NC(=O)[C@H](Cc2c[nH]c3ccccc23)NC(=O)[C@H](Cc2ccc(O)cc2)NC(=O)[C@H](CCC(=O)O)NC1=O)[C@@H](C)O (stereo partly drawn) [YS-10, Ac-RRR-Ahx-^17TSFX8EYWALLS5ENY^30-NH2] (Ac-RRR[Ahx]TSF[X1]EYWALL[ξαMeNle(6-ylidene)]ENY-NH2; staple 8-15)	–	1.69	17.9	–	–	–	–	–
